Patent publication US20240002467A1, “COMPOSITIONS AND METHODS OF INHIBITING THE BINDING OF PLASMA IGG AUTOANTIBODIES TO SEROTONIN 2A RECEPTOR” (UNITED STATES GOVERNMENT AS REPRESENTED BY THE DEPARTMENT …, priority 2020, published 2024)
Values joined by “and” are separate entries in the source; they are usually repeats but may differ in a detail not shown here. Equal values may be shown once. Ends that are not written are not given here. * marks the point of attachment. Myristoyl = CCCCCCCCCCCCCC(=O)*

Tests used:
[1] = system: male Zucker diabetic fatty rats; assay: Tail cuff blood pressure in male ZDF rats after IP peptide; type: in vivo, rat; conditions: for systolic blood pressure-lowering at 4 hours post-administration vs baseline: Experiment 2: two male ZDF rats; for Acute Peak diastolic blood pressure-lowering / Acute Peak mean arterial blood pressure-lowering / Acute Peak systolic blood pressure-lowering / Duration of Action, diastolic BP / Duration of Action, mean arterial BP / Duration of Action, systolic BP: two male ZDF rats
Experimental: Animals. Male ZDF and lean (+/?) Zucker rats were obtained from Charles River Laboratories (Kingston, NY) at approximately 6-7 weeks of age. The rats were single housed upon arrival, without enrichment. Rats were acclimatized for two weeks prior to experimental procedures. Rats were provided ad libitum access to food and water and maintained in a 12 h light/dark cycle with lights on at 0630. The procedures occurred during the light phase of the cycle. Blood pressure testing (following acute or chronic administration of the decoy peptides) was conducted in three separate cohorts of animals.
Cohort 1: Three 25-week-old male ZDF and three, age-matched, male Zucker lean rats (ZLR) treated with IP decoy peptide 2 (ZDF) vs saline (vehicle) (ZLR).
Cohort 2: Eleven-week old male ZDF (n=5) and Zucker lean rats (n=4) treated with IP decoy peptide 2.
Cohort 3: Twelve 8.5-week old male Zucker diabetic fatty rats were randomly assigned to one of three treatment groups (n=4/group). The rats underwent baseline blood pressure determinations using tail-cuff plethysmography technique. Next, the animals who expressed baseline hypertension, i.e., blood pressure >135/85, received either a 1 mg/kg intraperitoneal injection of pegylated decoy peptide 2 (n=3); a 2 mg/kg intraperitoneal dose of a scrambled decoy peptide 2 (n=4); or vehicle (i.e., sterile saline) (N=4). Blood pressure was determined at 15 minutes, 45 minutes, 4 hours, 8 hours, 24 hours, 30 and 48 hours following single IP injection. One week later, the same two groups of ZDF rats received either 0.75 mg/kg IP pegylated decoy peptide 2, 2 mg/kg scrambled decoy peptide 2, or sterile saline; and blood pressure was determined at similar timepoints. Two weeks later, two groups of 12-week-old ZDF rats (n=6/group) including those that had previously received acute peglyated decoy peptide 2 or scrambled decoy peptide 2 were treated on an alternative daily schedule with IP, free decoy peptide 2 (2 mg/kg) vs IP scrambled decoy peptide 2 (2 mg/kg) continuously for 13 weeks until sacrifice at 25 weeks of age. Body weight was determined immediately before sacrifice and after perfusion; and hearts were excised and weighed for determination of the heart-to-(perfused) body weight ratio.
(§1) Blood pressure monitoring. Tail cuff blood pressure measurement was performed using an automated CODA noninvasive blood pressure system (Kent Scientific, Torrington, CT). Rats were placed on an insulated warming platform in a well-heated room to ensure proper body temperature. Cuff monitors were provided in different sizes to accommodate rats of different ages and having different body weights. After the animal was positioned in the clear plastic restraint holder, the appropriate-sized cuff was slid over the rat's tail.
Statistical Analysis. Comparisons were made using Student's unpaired t-test (Tables 3-6, 9 and FIG. 18) or time series analysis (Tables 7, 8, FIG. 16).
as §1, with “CT.).” for “CT).”
Experiment 1: Four 12-week-old male ZDF rats were randomly assigned to receive either a single IP injection of a scrambled sequence (SEQ ID NO: 7) of Peptide ID #2 (SEQ ID NO: 2) at 1 mg/kg concentration or a 1 mg/kg concentration of myristolated Peptide ID #2 (SEQ ID NO: 9). Blood pressure was determined using tail cuff plethysmography (Kent Scientific) at 1, 4, 6, 48 and 72 hours post-injection.
Experiment 2: Six 12-week-old male ZDF rats were assigned to each of three treatment groups (N=2/group). […]

[2] = Solubility in water on reconstitution; type: physicochemical; conditions: compared with unconjugated peptide; reconstituted in DMSO first
Experimental: Synthetic peptides. The peptides were synthesized at Lifetein Inc. (Hillborough, NJ). The lyophilized peptides were aliquoted and stored (in the presence of desiccant) at −40° C. prior to use. On the day of intraperitoneal (IP) administration, an aliquot of lyophilized unconjugated peptide was reconstituted in sterile saline at the appropriate concentration of 2 mg/kg. Reconstituted peptide was prepared fresh before each injection. […] The final concentration of DMSO in sterile saline was 10%. The vehicle, DMSO in sterile saline, was tested independently and had no effect on blood pressure when administered as an IP injection.

[3] = system: male Zucker diabetic fatty rats; assay: Tail cuff blood pressure in male ZDF rats after IP peptide; type: in vivo, rat; conditions: two 13-week-old male ZDF rats, myristolated 2.5 mg/kg single IP
[4] = system: Zucker diabetic fatty rats; assay: Observation of side effects / tolerability in ZDF rats
[5] = 11-week-old male ZDF rats (N=4/group), single IP Myr-peptide 2 2 mg/kg vs scrambled 1 mg/kg (reference = 0), over 6 days
[6] = Experiment 1: myristolated 1 mg/kg single IP
[7] = four 11-12-week-old male ZDF rats, single 2 mg/kg IP
[8] = male ZDF rats before single 2 mg/kg IP, unconjugated: two 25-week-old, myristolated: four 11-12-week-old
[9] = male ZDF rats, single 2 mg/kg IP, unconjugated: two 25-week-old, myristolated: four 11-12-week-old
[10] = single 2 mg/kg IP vs 1 mg/kg scrambled
[11] = myristolated 1 mg/kg single IP, listed as Myristolated Peptide 2
[12] = myristolated 1.5 mg/kg single IP
[13] = myristolated 1.5 mg/kg single IP, listed as Myristolated Peptide 2
[14] = myristolated 2.0 mg/kg single IP
[15] = myristolated 2.0 mg/kg single IP, listed as Myristolated Peptide 2
[16] = myristolated 2.5 mg/kg single IP
[17] = myristolated 2.5 mg/kg single IP, listed as Myr Peptide 2
[18] = myristolated 2.5 mg/kg single IP, listed as Myristolated Peptide 2

Substance: Myr-SCLLADDN (Myristoyl-SCLLADDN) [myristolated Peptide ID 2]
- Estimate: diastolic blood pressure lowering effect vs scrambled peptide (time series) [1, 5]: −12.0471
- Estimate: systolic blood pressure lowering effect vs scrambled peptide (time series) [1, 5]: −17.4393
- effect on diastolic blood pressure, in words ([1]; Experiment 1: male ZDF rats (N=2/group), 1 mg/kg single IP): rapid-onset diastolic blood pressure lowering
- effect on systolic blood pressure, in words [1, 6]: significantly lower at 1, 4, 6 hours and 48 hours post-baseline, but not at 72 hours
- time span of significantly reduced mean arterial blood pressure [1, 6]: 1 to 72 h
- persistence of systolic blood pressure-lowering ([1]; Experiment 2: myristolated 1 mg/kg IP, one value per rat): 48 to 72 h and 96 to 168 h
- persistence of declines in diastolic and mean arterial blood pressure ([1]; Experiment 2: myristolated 1 mg/kg IP, rat 1 / rat 2): 2 to 3 days and 4 to 7 days
- persistence of systolic blood pressure-lowering ([1]; Experiment 2: myristolated 1.5 mg/kg IP): up to 168 hours
- persistence of blood pressure-lowering ([1]; Experiment 2: myristolated 1.5 mg/kg IP, both rats): up to 7 days
- systolic blood pressure-lowering at 4 hours post-administration vs baseline ([1]; myristolated 1 mg/kg IP): 8-11%
- systolic blood pressure-lowering at 4 hours post-administration vs baseline ([1]; myristolated 1.5 mg/kg IP): 13%
- mean diastolic BP, 72 hours [1, 7]: 80
- mean diastolic BP, 6 days [1, 7]: 85
- mean diastolic BP, 7 days [1, 7]: 94
- mean systolic BP, 72 hours [1, 7]: 126
- mean systolic BP, 6 days [1, 7]: 127
- mean systolic BP, 7 days [1, 7]: 142
- mean diastolic BP, Baseline [1, 8]: 97
- mean systolic BP, Baseline [1, 8]: 146
- mean diastolic BP, 24 hours [1, 9]: 76
- mean diastolic BP, 48 hours [1, 9]: 82
- mean systolic BP, 24 hours [1, 9]: 117
- mean systolic BP, 48 hours [1, 9]: 123
- duration of blood pressure lowering ([1]; male ZDF rats, single IP 2 mg/kg, myristic acid conjugated): ≥ 6 days
- mean lowering in diastolic blood pressure compared to scrambled Peptide 2 [1, 10]: 12 mm Hg
- mean lowering in systolic blood pressure compared to scrambled Peptide 2 [1, 10]: 17.4 mm Hg
- blood pressure-lowering effects, in words ([1]; single IP doses ranging from 1.0-2.5 mg/kg): potent, dose-dependent, and in many cases unexpectedly quite long-lasting
- time until systolic and diastolic blood pressure returned to baseline ([1]; two 13-week-old male ZDF rats, myristolated 2.5 mg/kg single IP): 9 days
- Acute Peak diastolic blood pressure-lowering ([1]; myristolated 1 mg/kg single IP): 10-12%
- Acute Peak mean arterial blood pressure-lowering ([1]; myristolated 1 mg/kg single IP): 6-8%
- Acute Peak systolic blood pressure-lowering ([1]; myristolated 1 mg/kg single IP): 4-10%^
- Duration of Action, diastolic BP ([1]; myristolated 1 mg/kg single IP): 4 to 6 days
- Duration of Action, mean arterial BP ([1]; myristolated 1 mg/kg single IP): 4 to 6 days
- Acute Peak diastolic blood pressure-lowering [1, 11]: 10-12%
- Acute Peak mean arterial blood pressure-lowering [1, 11]: 6-8%
- Duration of Action, systolic BP [1, 11]: 4 to 7 days and 7 days
- Acute Peak diastolic blood pressure-lowering [1, 12]: 11-19%
- Acute Peak mean arterial blood pressure-lowering [1, 12]: 14%
- Acute Peak systolic blood pressure-lowering [1, 12]: 10%
- Duration of Action, diastolic BP [1, 12]: 7 days
- Duration of Action, mean arterial BP [1, 12]: 7 days
- Duration of Action, systolic BP [1, 12]: 7 days
- Acute Peak diastolic blood pressure-lowering [1, 13]: 19%
- Acute Peak mean arterial blood pressure-lowering [1, 13]: 14%
- Acute Peak diastolic blood pressure-lowering [1, 14]: 22-25%
- Acute Peak systolic blood pressure-lowering [1, 14]: 7-15%
- Acute Peak mean arterial blood pressure-lowering ([1]; myristolated 2.0 mg/kg single IP, listed as Myr Peptide 2): 14-22%
- Acute Peak diastolic blood pressure-lowering [1, 15]: 20-25%.
- Acute Peak mean arterial blood pressure-lowering [1, 15]: 14-22%
- Acute Peak systolic blood pressure-lowering [1, 15]: 15%
- Acute Peak systolic blood pressure-lowering [1, 16]: 20-23%
- Duration of Action, diastolic BP [1, 16]: 9 days
- Duration of Action, mean arterial BP [1, 16]: 9 days
- Duration of Action, systolic BP [1, 16]: 9 days
- Acute Peak diastolic blood pressure-lowering [1, 17]: 18-35%
- Acute Peak mean arterial blood pressure-lowering [1, 17]: 28-30%
- Acute Peak diastolic blood pressure-lowering [1, 18]: 18-36%
- Acute Peak mean arterial blood pressure-lowering [1, 18]: 19-30%
- Acute Peak systolic blood pressure-lowering [1, 18]: 23%
- solubility in water, in words [2]: lower solubility in water
- duration of persistent blood pressure lowering ([3]; listed as myristolated decoy Peptide 2): 9 days
- duration of persistent blood pressure lowering ([3]; listed as myristolated decoy peptide 2): 8 days
- adverse physical or behavioral effects ([4]; Experiment 1: male ZDF rats, myristolated 1 mg/kg IP): No discernable adverse physical or behavioral effects
- untoward physical or behavioral effect ([4]; ten ZDF rats (Expt 1 and 2), up to 14-21 days after single IP): None of the ten rats tested (N=4 in Expt 1; N=6 in Expt 2) experienced any untoward physical or behavioral effect
